Test results as given in patent US20240385198A1, “STING MODULATOR COMPOSITIONS AND METHODS OF USE AND DETECTION THEREOF” (University of South Florida, priority 2023, published 2024).
Read-outs that look alike come from different tables or passages of the source.

Legend:
His-labeled STING = His-labeled STING (Homo sapiens, UniProt Q86WV6, H232R); experiment: Microscale thermophoresis (MST) analysis of STING modulators with 50 nM 2,3-cGAMP (Example 2); assay type: binding; details: compounds incubated with 50 nM 2,3-cGAMP
Protocol: Nanotemper Monolith NT.115 labeled thermophoresis machine (NanoTemper Technologies GmbH, München, Germany) was used with standard treated capillary tubes using samples comprised of labeled protein and titrations of small molecule in 1×PBS. […] Detection of the protein was performed using the blue detection channel with LED excitation power set to 90% and MST set to high allowing 3 s prior to MST on to check for initial fluorescence differences, 25 s for thermophoresis, and 3 s for regeneration after MST off.
[…] Analysis was performed using M.O. Affinity Analysis Software with difference between initial fluorescence measured in the first 5 s as compared with thermophoresis at 15 s at 15 different analyte concentrations ranging from 100 zM to […] and exported into Graphpad Prism v.8 using a Log inhibitor v. response 4 parameter fit.
Microscale Thermophoresis (MST) was performed on compounds incubating with 50 nM 2,3-cGAMP. Confidence is categorized as follows: 1=low confidence (<2 MST shift unit-non-statistical); 2=mid confidence (2-3 MST shift units-intermediate); 3=high confidence ([…]-statistical). Dissociation constants are categorized as follows: A<1 pM; 1 pM≤B<100 pM; 100 pM≤C<10 μM; 10 μM≤D<100 μM.

[1] = test system: STING R232 variant (human recombinant); experiment: MST competition assay of STING oligomerization with 2′,3′-cGAMP (Example 1); assay type: binding; details: 100 nM STING, 50 nM 2′,3′-cGAMP; for EC50 interactions (high, mid, low affinity) from MST dose-response: 1:10 series dilution 100 mM to 100 zM, FIGS. 3A, 3B, 4; for Interaction with STING as a function of incubation time (dose-response curves): 15 min, 30 min, 45 min incubation, FIGS. 2A-2C
From the text: Temperature Related Intensity Change (TRIC) is a biophysical technique that measures the strength of the interaction between two molecules by detecting a variation in the fluorescence signal of a fluorescently labeled or intrinsically fluorescent target as a result of an IR-laser induced temperature change. The extent of the temperature dependence is strongly related to the chemical environment of the fluorophore, which can be changed by the binding of a ligand to the target. Binding events below the picomolar level are difficult to detect because below this level, the ratio between target protein and analyte is too large for the detector to accurately measure movement. Herein describes a competition assay involving STING along with 2′,3′-cGAMP to detect analyte interaction with STING at sub-picomolar levels by measuring changes to oligomerization of STING.
The NanoTemper Pico instrument produces data in three separate phases: fluorescent count; normalized MST time-trace; and the change in normalized fluorescence (ΔFnorm) result. The fluorescent count is done to ensure that there is no difference between overall fluorescence between fractions, that there is enough fluorescent signal present for the detector to accurately give a reading, but not too much as to negatively affect migration during thermophoresis. It also gives indication if there is aggregation or adsorption within samples. The normalized MST time-trace gives an indication of the movement of molecules by thermophoresis within the detector sight picture over a period of time (T−Jump). The final graph is a ΔFnorm readout which is mathematically determined using the formula:
ΔFnorm=Fhot/Fcold • whereas Fhot equals an area designated by the analyst, located within the T−Jump area and Fcold equals the area within the initial fluorescence area just before the infrared (IR) laser heats the capillary tube.
STING R232 variant (human recombinant) protein was solubilized at 200 nM in HBS-P (0.01M HEPES pH 7.4, 0.15 NaCl, 0.005% v/v surfactant P20) along with 100 nM 2′,3′-cGAMP. 100 nM of NTAAtto 488 dye (blue; nitrilotriacetic acid complexed to Ni^2+) was added and incubated for 1 hour at room temperature covered from light. The resulting mixture was centrifuged at 12,000×RPM for 10 minutes prior to use. A 1:10 series dilution from 200 mM to 200 zM was created using HBS-P with 1% DMSO. The dyed STING/2′,3′-cGAMP mixture was added to each sample in a 1:1 ratio, resulting in a static 100 nM STING, 50 nM 2′,3′-cGAMP, and a concentration range from 100 mM to 100zM. Samples were incubated for 15-minutes prior to load into Monolith NT.115 capillaries and ran on dianthus NT.23 NanoTemper Pico instrument (NanoTemper Technologies GmbH, München, Germany). Samples were run again at 30- and 45-minutes.

[2] = read-out: Dissociation Constant
[3] = first of two binding events, read-out: Dissociation Constant Kd1
[4] = second of two binding events, read-out: Dissociation Constant Kd2

His-labeled STING, sequence (Q86WV6 138-379 H232R): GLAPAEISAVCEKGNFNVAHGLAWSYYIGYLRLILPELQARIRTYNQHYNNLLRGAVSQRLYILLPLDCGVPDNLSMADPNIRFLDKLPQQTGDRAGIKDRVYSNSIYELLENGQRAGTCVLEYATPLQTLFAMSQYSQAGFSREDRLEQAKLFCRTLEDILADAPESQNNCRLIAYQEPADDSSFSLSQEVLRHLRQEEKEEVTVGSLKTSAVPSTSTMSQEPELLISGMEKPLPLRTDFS

CNC(=O)c1cccnc1Nc1cccc(Cl)c1C [Compound 14]
Confidence (MST shift units) (His-labeled STING): 2 (2=mid confidence (2-3 MST shift units-intermediate))
Kd (His-labeled STING; [2]): 0.1 to 10000 nM

C#CCOC(=O)c1cccnc1Nc1cccc(Cl)c1C [Formula (II)]
EC50 interactions (high, mid, low affinity) from MST dose-response [1]: only a low affinity EC50

Cc1c(Cl)cccc1Nc1ncccc1CN [Compound 40]
Kd (His-labeled STING; [3]): 0.1 to 10000 nM
Kd (His-labeled STING; [4]): < 0.001 nM

Cc1c(Cl)cccc1Nc1ncccc1C(=O)OCCCCOC(=O)c1cccnc1Nc1cccc(Cl)c1C [Compound 49]
Confidence (MST shift units) (His-labeled STING): 1 (1=low confidence (<2 MST shift unit-non-statistical))
Kd (His-labeled STING; [2]): 0.001 to 0.1 nM

Cc1c(Cl)cccc1Nc1ccccc1C(=O)OCC(O)CO (stereo not drawn) [Compound 38]
Confidence (MST shift units) (His-labeled STING): 1 (1=low confidence (<2 MST shift unit-non-statistical))
Kd (His-labeled STING; [3]): 0.1 to 10000 nM
Kd (His-labeled STING; [4]): < 0.001 nM

Cc1cccc(Nc2ncccc2C(=O)O)c1C [Compound 47]
Confidence (MST shift units) (His-labeled STING): 1 (1=low confidence (<2 MST shift unit-non-statistical))
Dissociation Constant (His-labeled STING): No Binding

CCCCC(=O)c1cccnc1Nc1cccc(Cl)c1C [Compound 21]
Confidence (MST shift units) (His-labeled STING): 2 (2=mid confidence (2-3 MST shift units-intermediate))
Kd (His-labeled STING; [2]): 0.1 to 10000 nM

CCCOC(=O)c1cccnc1Nc1cccc(Cl)c1C [Compound 11]
Confidence (MST shift units) (His-labeled STING): 1 (1=low confidence (<2 MST shift unit-non-statistical))
Kd (His-labeled STING; [3]): 0.1 to 10000 nM
Kd (His-labeled STING; [4]): < 0.001 nM

C=CCNC(=O)c1cccnc1Nc1cccc(Cl)c1C [Compound 17]
Confidence (MST shift units) (His-labeled STING): 1 (1=low confidence (<2 MST shift unit-non-statistical))
Kd (His-labeled STING; [2]): 0.1 to 10000 nM

CCC(COC(=O)c1cccnc1Nc1cccc(C)c1C)OC (stereo not drawn) [Compound 43]
Confidence (MST shift units) (His-labeled STING): 1 (1=low confidence (<2 MST shift unit-non-statistical))

CNC(=O)c1cccnc1Nc1cccc(Cl)c1C [Formula (III)]
Interaction with STING as a function of incubation time (dose-response curves) [1]: relatively slow interaction

CCCNC(=O)c1cccnc1Nc1cccc(Cl)c1C [Compound 16]
Confidence (MST shift units) (His-labeled STING): 2 (2=mid confidence (2-3 MST shift units-intermediate))
Kd (His-labeled STING; [2]): 0.1 to 10000 nM

Cc1c(Br)cccc1Nc1ncccc1C(=O)O [Compound 23]
Confidence (MST shift units) (His-labeled STING): 3 (3=high confidence (>2 MST shift units-statistical))
Kd (His-labeled STING; [2]): 10000 to 100000 nM

CCC(COC(=O)c1cccnc1Nc1cccc(Br)c1C)OC (stereo not drawn) [Compound 42]
Confidence (MST shift units) (His-labeled STING): 2 (2=mid confidence (2-3 MST shift units-intermediate))

C#CCOC(=O)c1cccnc1Nc1cccc(Cl)c1C [Compound 13]
Confidence (MST shift units) (His-labeled STING): 2 (2=mid confidence (2-3 MST shift units-intermediate))
Kd (His-labeled STING; [2]): 10000 to 100000 nM

COC(=O)c1cccnc1Nc1cccc(Cl)c1C [Compound 9]
Confidence (MST shift units) (His-labeled STING): 3 (3=high confidence (>2 MST shift units-statistical))
Kd (His-labeled STING; [3]): 0.1 to 10000 nM
Kd (His-labeled STING; [4]): < 0.001 nM

Cc1c(Br)cccc1Nc1ncccc1C(=O)OCC(O)CO (stereo not drawn) [Compound 26]
Kd (His-labeled STING; [2]): < 0.001 nM

Cc1c(Cl)cccc1Nc1ncccc1CO [Compound 4]
Confidence (MST shift units) (His-labeled STING): 2 (2=mid confidence (2-3 MST shift units-intermediate))
Kd (His-labeled STING; [2]): < 0.001 nM

CNCc1cccnc1Nc1cccc(Cl)c1C [Formula (IV)]
Interaction with STING as a function of incubation time (dose-response curves) [1]: relatively rapid interaction with STING that was not maintained

COC(=O)c1cccnc1Nc1cccc(Br)c1C [Compound 24]
Confidence (MST shift units) (His-labeled STING): 1 (1=low confidence (<2 MST shift unit-non-statistical))
Kd (His-labeled STING; [2]): 0.001 to 0.1 nM

Cc1c(Cl)cccc1Nc1ncccc1C(=O)OCC(O)CO (stereo not drawn) [Compound 19]
Confidence (MST shift units) (His-labeled STING): 1 (1=low confidence (<2 MST shift unit-non-statistical))
Kd (His-labeled STING; [2]): < 0.001 nM

Cc1cccc(Nc2ncccc2C(=O)OCC(O)CO)c1C (stereo not drawn) [Compound 48]
Confidence (MST shift units) (His-labeled STING): 1 (1=low confidence (<2 MST shift unit-non-statistical))
Dissociation Constant (His-labeled STING): No Binding

COC(=O)c1cccnc1Nc1cccc(C(F)(F)F)c1C [Compound 30]
Kd (His-labeled STING; [2]): 0.001 to 0.1 nM

CCOC(=O)c1cccnc1Nc1cccc(Cl)c1C [Compound 10]
Confidence (MST shift units) (His-labeled STING): 1 (1=low confidence (<2 MST shift unit-non-statistical))
Dissociation Constant (His-labeled STING): Low R2

Cc1c(Cl)cccc1Nc1ccccc1C(=O)O [Compound 36]
Confidence (MST shift units) (His-labeled STING): 1 (1=low confidence (<2 MST shift unit-non-statistical))
Dissociation Constant (His-labeled STING): No Binding

CCC(COC(=O)c1ccccc1Nc1cccc(C)c1C)OC (stereo not drawn) [Compound 46]
Confidence (MST shift units) (His-labeled STING): 1 (1=low confidence (<2 MST shift unit-non-statistical))

Cc1cccc(Nc2ccccc2C(=O)O)c1C [Compound 45]
Confidence (MST shift units) (His-labeled STING): 1 (1=low confidence (<2 MST shift unit-non-statistical))
Dissociation Constant (His-labeled STING): No Binding

Cc1c(Nc2ncccc2C(=O)OCC(O)CO)cccc1C(F)(F)F (stereo not drawn) [Compound 29]
Kd (His-labeled STING; [2]): < 0.001 nM

CCNC(=O)c1cccnc1Nc1cccc(Cl)c1C [Compound 15]
Confidence (MST shift units) (His-labeled STING): 1 (1=low confidence (<2 MST shift unit-non-statistical))
Kd (His-labeled STING; [2]): 0.1 to 10000 nM

Cc1c(Cl)cccc1Nc1ncccc1C(=O)OCCCOC(=O)c1cccnc1Nc1cccc(Cl)c1C [Compound 41]
Confidence (MST shift units) (His-labeled STING): 1 (1=low confidence (<2 MST shift unit-non-statistical))
Kd (His-labeled STING; [2]): 0.1 to 10000 nM

COC(=O)c1cccnc1Nc1cccc(F)c1C [Compound 44]
Confidence (MST shift units) (His-labeled STING): 1 (1=low confidence (<2 MST shift unit-non-statistical))
Kd (His-labeled STING; [2]): 0.001 to 0.1 nM

Cc1c(Cl)cccc1Nc1ncccc1COCC(O)CO (stereo not drawn) [Compound 1]
Confidence (MST shift units) (His-labeled STING): 1 (1=low confidence (<2 MST shift unit-non-statistical))
Kd (His-labeled STING; [2]): 0.001 to 0.1 nM

Cc1c(Cl)cccc1Nc1ncccc1C(=O)OCCCCCOC(=O)c1cccnc1Nc1cccc(Cl)c1C [Compound 50]
Confidence (MST shift units) (His-labeled STING): 3 (3=high confidence (>2 MST shift units-statistical))
Kd (His-labeled STING; [2]): 0.1 to 10000 nM

COC(=O)c1cccnc1Nc1cccc(Cl)c1C [Formula (I)]
EC50 interactions (high, mid, low affinity) from MST dose-response [1]: several nonlinear regression curves

NC(=O)NC1NC(=O)NC1=O (stereo not drawn) [Compound 52]
Confidence (MST shift units) (His-labeled STING): 3 (3=high confidence (>2 MST shift units-statistical))
Kd (His-labeled STING; [3]): 0.1 to 10000 nM
Kd (His-labeled STING; [4]): < 0.001 nM

Cc1c(Nc2ncccc2C(=O)O)cccc1C(F)(F)F [Compound 27]
Confidence (MST shift units) (His-labeled STING): 3 (3=high confidence (>2 MST shift units-statistical))
Kd (His-labeled STING; [2]): 0.1 to 10000 nM
